Results as given in article PMC12490239, “Combining BET inhibition with SMAC mimetics restricts tumor growth and triggers immune surveillance in preclinical cancer models” (Cell Reports Medicine, 2025).

Legend:
Test in all cases: cells
Design in all cases: CellTiter-Glo 2.0 luminescence proliferation/viability assay, single agents, human tumour cell line panel
SNU1684 = settings: 96 h; single agent; read-out: IC50 SMACm
Outline: (§1)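 Human tumour cell lines were seeded into assay plates and held at 37°C with 5% CO2 for twenty-four hours, then exposed in triplicate to rising concentrations of the SMAC mimetic, from 4.5 nM to 10 μM, with DMSO as control. After 96 h, viability was read as CellTiter-Glo2.0 luminescence to derive single-agent IC50 values.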

SNU1460 = settings: 96 h; single agent; read-out: IC50 SMACm
Outline: as §1

HARA = settings: 96 h; single agent; read-out: IC50 SMACm
Outline: as §1

C70 = settings: 96 h; single agent; read-out: IC50 SMACm
Outline: as §1

C84 = settings: 96 h; single agent; read-out: IC50 SMACm
Outline: as §1

SW480 = settings: Homo sapiens, SW480, 96 h; single agent; read-out: IC50 SMACm
Outline: as §1

NCI-H2126 = settings: Homo sapiens, NCI-H2126, 96 h; single agent; read-out: IC50 SMACm
Outline: as §1

SNU1181 = settings: 96 h; single agent; read-out: IC50 SMACm
Outline: as §1

LU-65 = settings: Homo sapiens, Lu-65, 96 h; single agent; read-out: IC50 SMACm
Outline: as §1

ChaGo-K-1 = settings: Homo sapiens, ChaGo-K-1, 96 h; single agent; read-out: IC50 SMACm
Outline: as §1

SW900 = settings: Homo sapiens, SW900, 96 h; single agent; read-out: IC50 SMACm
Outline: as §1

HCA7 = settings: HCA-7, 96 h; single agent; read-out: IC50 SMACm
Outline: as §1

NCI-H838 = settings: Homo sapiens, NCI-H838, 96 h; single agent; read-out: IC50 SMACm
Outline: as §1

COLO678 = settings: Homo sapiens, COLO-678, 96 h; single agent; read-out: IC50 SMACm
Outline: as §1

SNU1544 = settings: 96 h; single agent; read-out: IC50 SMACm
Outline: as §1

IC50 (SNU1684): 3.2 µM
IC50 (SNU1460): 3.15 µM
IC50 (SW480): 5.81 µM
IC50 (NCI-H2126): 6.14 µM
IC50 (SNU1181): 5.08 µM
IC50 (SW900): 1.78 µM
IC50 (NCI-H838): 4.18 µM
IC50 (COLO678): 2.59 µM
IC50 (SNU1544): 3.1 µM
SMILES: CN[C@@H](C)C(=O)Nc1ccc(-c2c(-c3cccnc3OC)nc3cc(C)ccn23)c(C#Cc2ccc3c(C)nccc3c2)n1 [SMACm, BI 891065]
IC50 (HARA): 3.97 µM
IC50 (C70): 3.31 µM
IC50 (C84): 3.35 µM
IC50 (LU-65): 4.35 µM
IC50 (ChaGo-K-1): 5.42 µM
IC50 (HCA7): 2.83 µM
